Source: US4725591A, “β-lactamase inhibitory composition” (Takeda Chemical Industries, Ltd., priority 1980, dated 1988)

Assays:
[1] = molecular target: T1, β-lactamase produced by Enterobacter cloacae IFO 12937 (Enterobacter cloacae, UniProt P05364); test: Inhibitor concentration required to inhibit β-lactamase (cephalosporinase) activity by 50%, micro-iodometric method; format: biochemical; conditions: Enterobacter cloacae IFO 12937 cephalosporinase; 0.05M phosphate buffer pH 7, 30° C., 10 minutes preincubation; cephalothin or ampicillin 0.1 mM; read-out: I50 (converted)
T1 construct: The β-lactamase produced by Enterobacter cloacae IFO 12937; endogenous in cells; host or cells: Enterobacter cloacae IFO 12937
T1 sequence (P05364 21-381): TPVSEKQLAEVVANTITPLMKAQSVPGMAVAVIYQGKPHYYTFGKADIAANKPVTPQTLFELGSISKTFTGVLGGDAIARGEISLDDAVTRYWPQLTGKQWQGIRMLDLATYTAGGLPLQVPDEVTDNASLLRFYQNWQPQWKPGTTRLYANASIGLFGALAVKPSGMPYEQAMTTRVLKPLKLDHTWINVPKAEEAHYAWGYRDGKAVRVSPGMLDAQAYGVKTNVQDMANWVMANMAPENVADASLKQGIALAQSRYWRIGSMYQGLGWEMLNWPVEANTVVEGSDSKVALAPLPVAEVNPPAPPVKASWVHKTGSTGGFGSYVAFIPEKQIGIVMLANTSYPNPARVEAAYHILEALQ
Procedure: Determination of the inhibitor concentration required to inhibit the enzyme activity by 50%
The β-lactamase produced by Enterobacter cloacae IFO 12937 is used as a typical example of cephalosporinase, and that produced by Staphylococcus aureus 1840 as typical example of penicillinase. The β-lactamase in incubated is 0.05M phosphate buffer (pH 7) with an appropriate dilution of an inhibitor preparation at 30° C. for 10 minutes. Cephalothin or ampicillin is then added in an amount sufficient to produce a final concentration of 0.1 mM, and the enzymatic reaction is allowed to proceed for 10 minutes. The enzyme activity is determined by the micro-iodometric method [Journal of general Microbiology, vol. 33, page 121 (1963)]. Hereinafter, the inhibitor concentration required to inhibit the enzyme activity by 50% is expressed as I50. The I50 values for Enterobacter cloaceae are shown in Table 1, and the I50 values for Staphylococcus aureus in Table 2.

[2] = system: Citrobacter freundii GN 1706; test: Synergy with Cefotiam, agar dilution MIC; format: cell-based; conditions: 18 hours; for MIC of Cefotiam with 1 μg/ml of Compound: inoculum 10^8 per ml; for MIC of Cefotiam alone: Trypticase soy agar, unit assumed
Procedure: (§1) The inoculum concentration is 10^8 per ml, and the medium is prepared by using Trypticase® soy agar (Becton Dickinson & Company, USA).

[3] = system: Citrobacter freundii IFO 12681; test: Synergy with Cefotiam, agar dilution MIC; format: cell-based; conditions: 18 hours; for MIC of Cefotiam with 1 μg/ml of Compound: Table 3, 1 μg/ml test compound in agar, inoculum 10^8 per ml
Procedure: as §1

[4] = system: Enterobacter cloacae TN 587; test: Synergy with Cefotiam, agar dilution MIC; format: cell-based; conditions: 18 hours; for MIC of Cefotiam with 1 μg/ml of Compound: Table 3, 1 μg/ml test compound in agar, inoculum 10^8 per ml
Procedure: as §1

[5] = system: Proteus morganii IFO 3168; test: Synergy with Cefotiam, agar dilution MIC; format: cell-based; conditions: 18 hours; for MIC of Cefotiam with 1 μg/ml of Compound: Table 3, 1 μg/ml test compound in agar, inoculum 10^8 per ml
Procedure: as §1

[6] = system: Proteus vulgaris GN 5297; test: Synergy with Cefotiam, agar dilution MIC; format: cell-based; conditions: 18 hours; for MIC of Cefotiam with 1 μg/ml of Compound: inoculum 10^8 per ml; for MIC of Cefotiam alone: Trypticase soy agar, unit assumed
Procedure: as §1

[7] = system: Serratia marcescens IFO 12648; test: Synergy with Cefotiam, agar dilution MIC; format: cell-based; conditions: 18 hours; for MIC of Cefotiam with 1 μg/ml of Compound: Table 3, 1 μg/ml test compound in agar, inoculum 10^8 per ml
Procedure: as §1

[8] = system: Citrobacter freundii TN 512; test: Synergy with Cefotiam, agar dilution MIC; format: cell-based; conditions: 18 hours; for MIC of Cefotiam with 1 μg/ml of Compound: Table 4, 1 μg/ml test compound in agar, inoculum 10^8 per ml
Procedure: as §1

[9] = system: Enterobacter cloacae IFO 12937; test: Synergy with Cefotiam, agar dilution MIC; format: cell-based; conditions: 18 hours; for MIC of Cefotiam with 1 μg/ml of Compound: Table 4, 1 μg/ml test compound in agar, inoculum 10^8 per ml
Procedure: as §1

[10] = system: Proteus morganii TN 387; test: Synergy with Cefotiam, agar dilution MIC; format: cell-based; conditions: 18 hours; for MIC of Cefotiam with 1 μg/ml of Compound: Table 4, 1 μg/ml test compound in agar, inoculum 10^8 per ml
Procedure: as §1

[11] = Table 3, 1 μg/ml test compound in agar
[12] = Table 4, 1 μg/ml test compound in agar
[13] = Table 3, inoculum 10^8 per ml, Trypticase soy agar, unit assumed
[14] = Table 4, inoculum 10^8 per ml, Trypticase soy agar, unit assumed

IC50 [1] | MIC of Cefotiam with 1 μg/ml of Compound [2, 12] | MIC of Cefotiam with 1 μg/ml of Compound [8] | MIC of Cefotiam with 1 μg/ml of Compound [9] | MIC of Cefotiam with 1 μg/ml of Compound [10] | MIC of Cefotiam with 1 μg/ml of Compound [6, 12] | SMILES | MIC of Cefotiam with 1 μg/ml of Compound [2, 11] | MIC of Cefotiam with 1 μg/ml of Compound [3] | MIC of Cefotiam with 1 μg/ml of Compound [4] | MIC of Cefotiam with 1 μg/ml of Compound [5] | MIC of Cefotiam with 1 μg/ml of Compound [6, 11] | MIC of Cefotiam with 1 μg/ml of Compound [7] | also measured
2420 nM |  |  |  |  |  | CC(C)ON=C(C(=O)NC1CN(S(=O)(=O)O)C1=O)c1csc(NC(=O)CCl)n1 (centres unmarked) [Compound 28, Sodium 3-[2-(2-chloroacetamidothiazol-4-yl)-2-(1-methylethoxyimino)acetamido]-2-oxoazetidine-1-sulfonae] | 50 | 50 | 50 | 100 | 100 | 200 | 
163 nM | 12.5 | 0.39 | 0.78 | 100 | 200 | CON=C(C(=O)NC1CN(S(=O)(=O)O)C1=O)c1csc(NS(=O)(=O)O)n1 (centres unmarked) [Compound 29] |  |  |  |  |  |  | 
162 nM | 3.13 | 0.39 | 0.39 | < 0.2 | 100 | Cc1onc(-c2c(Cl)cccc2Cl)c1C(=O)NC1CN(S(=O)(=O)O)C1=O (centres unmarked) [Compound 9] |  |  |  |  |  |  | 
 |  |  |  |  |  | CN(C)CCn1nnnc1SCC1=C(C(=O)O)N2C(=O)[C@@H](NC(=O)Cc3csc(N)n3)[C@H]2SC1 [Cefotiam, reference compound] |  |  |  |  |  |  | MIC of Cefotiam alone ([2]; Table 3, inoculum 10^8 per ml): 200 µg/mL; MIC of Cefotiam alone ([2]; Table 4, inoculum 10^8 per ml): 50 µg/mL; MIC of Cefotiam alone [3, 13]: 200 µg/mL; MIC of Cefotiam alone [8, 14]: 625 µg/mL; MIC of Cefotiam alone [9, 14]: 100 µg/mL; MIC of Cefotiam alone [4, 13]: > 400 µg/mL; MIC of Cefotiam alone [5, 13]: 400 µg/mL; MIC of Cefotiam alone [10, 14]: 200 µg/mL; MIC of Cefotiam alone ([6]; Table 3, inoculum 10^8 per ml): 100 µg/mL; MIC of Cefotiam alone ([6]; Table 4, inoculum 10^8 per ml): 400 µg/mL; MIC of Cefotiam alone [7, 13]: > 400 µg/mL
4010 nM | 25 | < 0.2 | 0.2 | 25 | 25 | CON=C(C(=O)NC1CN(S(=O)(=O)O)C1=O)c1csc(N)n1 (centres unmarked) [Compound 12] |  |  |  |  |  |  | 

SMILES | IC50 [1] | MIC of Cefotiam with 1 μg/ml of Compound [2, 12] | MIC of Cefotiam with 1 μg/ml of Compound [8] | MIC of Cefotiam with 1 μg/ml of Compound [9] | MIC of Cefotiam with 1 μg/ml of Compound [10] | MIC of Cefotiam with 1 μg/ml of Compound [6, 12] | MIC of Cefotiam with 1 μg/ml of Compound [2, 11] | MIC of Cefotiam with 1 μg/ml of Compound [3] | MIC of Cefotiam with 1 μg/ml of Compound [4] | MIC of Cefotiam with 1 μg/ml of Compound [5] | MIC of Cefotiam with 1 μg/ml of Compound [6, 11] | MIC of Cefotiam with 1 μg/ml of Compound [7] | also measured
CC(C)ON=C(C(=O)NC1CN(S(=O)(=O)[O-])C1=O)c1csc(=N)n1S(C)(=O)=O.[Na+] (centres unmarked) | 4.19 nM |  |  |  |  |  | 50 | 6.25 | 3.13 | 50 | 100 | 200 | 
CC(C)ON=C(C(=O)NC1CN(S(=O)(=O)[O-])C1=O)c1csc(NS(C)(=O)=O)n1.[Na+] (centres unmarked) | 4.4 nM |  |  |  |  |  | 100 | 12.5 | 12.5 | 25 | 100 | 200 | 
CC(C)(C)OC(=O)C(C)(C)ON=C(C(=O)NC1CN(S(=O)(=O)O)C1=O)c1csc(NC(c2ccccc2)(c2ccccc2)c2ccccc2)n1 (centres unmarked) [Compound 27, Sodium 3-[2-(2-tritylaminothiaozl-4-yl)-2-[(1-tert-butoxycarbonyl-1-methylethoxy)imino]acetamido]-2-oxoazetidine-1-sulfonate] | 69.5 nM | 3.13 | 0.39 | 0.39 | < 0.2 | < 0.2 |  |  |  |  |  |  | 
